Converted amounts (≈) assume the structure as drawn. Read-outs that look alike come from different tables or passages of the source.
Assays:
[1] = test system: Streptococcus pyogenes A 308; assay: Antibacterial activity, MIC by Agar dilution method, standard test strain 1; assay type: cell-based; conditions: A308, 10^7 CFU/ml, 37° C., 18 hours
Method: (§1) The antibacterial activity was determined by an Agar dilution method as described below.
(§2) That is, the two-fold serial dilutions of the antibacterial compounds (1000 μg compound/ml) were prepared and dispersed in Muller Hinton Agar in a petri dish to a concentration of 100~0.002 μg/ml. The culture broths of standard test strains were inoculated on the medium to a concentration 10^7 CFU/ml, and incubated at 37° C. for 18 hours. The concentration of compounds(I) at which the strains were not grown was regarded as minimum inhibition concentration (MIC).
(§3) The results of antibacterial activity test of the representative examples of the compound (I) against 20 standard test strains shown in terms of MIC were indicated in Table 1.
1. Streptococcus pyogenes A 308

[2] = test system: Pseudomonas aeruginosa 9027; assay: Antibacterial activity, MIC by Agar dilution method, standard test strain 12; assay type: cell-based; conditions: 10^7 CFU/ml, 37° C., 18 hours
Method: as §1, §2, §3
12. Pseudomonas aeruginosa 9027

[3] = test system: Enterobacter cloacae 1321E; assay: Antibacterial activity, MIC by Agar dilution method, standard test strain 20; assay type: cell-based
Method: as §1, §2, §3
20. Enterobacter cloacae 1321E

[4] = test system: Staphylococcus aureus SG 511; assay: Antibacterial activity, MIC by Agar dilution method, standard test strain 4; assay type: cell-based; conditions: SG511, 10^7 CFU/ml, 37° C., 18 hours
Method: as §1, §2, §3
4. Staphylococcus aureus SG 511

Escherichia coli DC 2 = assay: Antibacterial activity, MIC by Agar dilution method, standard test strain 9; assay type: cell-based; conditions: DC2; Escherichia coli DC 2; 10^7 CFU/ml, 37° C., 18 hours; read-out: MIC
Method: as §1, §2, §3

[5] = test system: Pseudomonas aeruginosa 1592E; assay: Antibacterial activity, MIC by Agar dilution method, standard test strain 13; assay type: cell-based; conditions: 10^7 CFU/ml, 37° C., 18 hours
Method: as §1, §2, §3
13. Pseudomonas aeruginosa 1592E

[6] = test system: Staphylococcus aureus 503; assay: Antibacterial activity, MIC by Agar dilution method, standard test strain 6; assay type: cell-based; conditions: 10^7 CFU/ml, 37° C., 18 hours
Method: as §1, §2, §3
6. Staphylococcus aureus 503

Escherichia coli 1507E = assay: Antibacterial activity, MIC by Agar dilution method, standard test strain 11; assay type: cell-based
Method: as §1, §2, §3

[7] = test system: Streptococcus pyogenes A 77; assay: Antibacterial activity, MIC by Agar dilution method, standard test strain 2; assay type: cell-based; conditions: A77, 10^7 CFU/ml, 37° C., 18 hours
Method: as §1, §2, §3
2. Streptococcus pyogenes A 77

[8] = test system: Pseudomonas aeruginosa 1771; assay: Antibacterial activity, MIC by Agar dilution method, standard test strain 14; assay type: cell-based; conditions: 10^7 CFU/ml, 37° C., 18 hours
Method: as §1, §2, §3
14. Pseudomonas aeruginosa 1771

[9] = test system: Pseudomonas aeruginosa 1771M; assay: Antibacterial activity, MIC by Agar dilution method, standard test strain 15; assay type: cell-based; conditions: 18 h
Method: as §1, §2, §3
15. Pseudomonas aeruginosa 1771M

Acute toxcity test = conditions: in vivo, male ICR-mouse, after 1 week
Method: Further, in order to illustrate the usefulness of the compounds (I) as a drug, compounds of Examples 12, 18 and 36 were tested for acute toxcity by using 4 weeks-old male ICR-mouse as a test animal.
the compounds were dissolved in physiological saline and phosphate buffered solution (pH 7.0), or if they were […], suspended in carboxymethylcellulose or gum Arabic and then mixed with phosphate buffered solution.
The solution or mixture was administered to the tested animals intravenously or subcutaneously and, after 1 week, the number of surviving animals was calculated.

Escherichia coli O 55 = assay: Antibacterial activity, MIC by Agar dilution method, standard test strain 7; assay type: cell-based
Method: as §1, §2, §3

[10] = test system: Klebsiella aerogenes 1522E; assay: Antibacterial activity, MIC by Agar dilution method, standard test strain 18; assay type: cell-based; conditions: Klebsiella aerogenes 1522E; 10^7 CFU/ml, 37° C., 18 hours; read-out: MIC
Method: as §1, §2, §3
18. Klebsiella aerogenes 1522E

Escherichia coli DC O = assay: Antibacterial activity, MIC by Agar dilution method, standard test strain 8; assay type: cell-based; conditions: Escherichia coli DC O; 10^7 CFU/ml, 37° C., 18 hours; read-out: MIC
Method: as §1, §2, §3

Klebsiella oxytoca 1082E = assay: Antibacterial activity, MIC by Agar dilution method, standard test strain 17; assay type: cell-based; conditions: 10^7 CFU/ml, 37° C., 18 hours
Method: as §1, §2, §3

Enterobacter cloacae P99 = assay: Antibacterial activity, MIC by Agar dilution method, standard test strain 19; assay type: cell-based; conditions: P99, 18 h
Method: as §1, §2, §3
19. Enterobacter cloacae P99

[11] = test system: Gram-positive strains as well as Gram-negative strains including Pseudomonas; assay: Antibacterial activity (summary in words); assay type: cell-based; conditions: Gram-positive and Gram-negative strains
Method: as §1, §2

[12] = test system: Streptococcus faecium MD 86; assay: Antibacterial activity, MIC by Agar dilution method, standard test strain 3; assay type: cell-based; conditions: Enterococcus faecium, MD86, 10^7 CFU/ml, 37° C., 18 hours
Method: as §1, §2, §3
3. Streptococcus faecium MD 86

Escherichia coli TEM = assay: Antibacterial activity, MIC by Agar dilution method, standard test strain 10; assay type: cell-based
Method: as §1, §2, §3

Salmonella typhimurium = assay: Antibacterial activity, MIC by Agar dilution method, standard test strain 16; assay type: cell-based; conditions: Salmonella enterica, 10^7 CFU/ml, 37° C., 18 hours
Method: as §1, §2, §3
16. Salmonella typhimurium

Staphyloccus aureus 285 = assay: Antibacterial activity, MIC by Agar dilution method, standard test strain 5; assay type: cell-based; conditions: 10^7 CFU/ml, 37° C., 18 hours
Method: as §1, §2, §3
5. Staphyloccus aureus 285

[13] = Escherichia coli 1507E, 10^7 CFU/ml, 37° C., 18 hours, read-out: MIC
[14] = sc, Subcutaneous administration
[15] = Enterobacter cloacae 1321E, 10^7 CFU/ml, 37° C., 18 hours, read-out: MIC
[16] = Escherichia coli TEM, 10^7 CFU/ml, 37° C., 18 hours, read-out: MIC
[17] = O55, Escherichia coli O 55, 10^7 CFU/ml, 37° C., 18 hours, read-out: MIC

CO/N=C(\C(=O)N[C@@H]1C(=O)N2C(C(=O)[O-])=C(C[n+]3cn(N)cn3)CS[C@H]12)c1csc(N)n1 [Example 12, (6R,7R)-7-[(Z)-2-(2-aminothiazol-4-yl)-2-methoxyiminoacetamido]-3-[(4-amino-1,2,4-triazol-2-ium)methyl]-ceph-3-em-4-carboxylate]
MIC [1]: 7 ng/mL (≈ 0.0146 µM)
MIC [2]: 12.5 µg/mL (≈ 26.1 µM)
MIC ([3]; Enterobacter cloacae, 1321E, 18 h): 0.025 µg/mL (≈ 0.0521 µM)
MIC [4]: 1.56 µg/mL (≈ 3.26 µM)
MIC (Escherichia coli DC 2): 0.097 µg/mL (≈ 0.202 µM)
MIC [5]: 6.25 µg/mL (≈ 13 µM)
MIC [6]: 0.781 µg/mL (≈ 1.63 µM)
MIC (Escherichia coli 1507E; [13]): 0.098 µg/mL (≈ 0.204 µM)
MIC [7]: 7 ng/mL (≈ 0.0146 µM)
MIC [8]: 6.25 µg/mL (≈ 13 µM)
MIC [9]: 0.195 µg/mL (≈ 0.407 µM)
LD50 at 168 h (Acute toxcity test; [14]): > 6000 mg/kg
LD50 at 168 h (Acute toxcity test; Intravenous administration): > 4000 mg/kg
MIC (Escherichia coli O 55; Escherichia coli, O55, 18 h): 0.025 µg/mL (≈ 0.0521 µM)
MIC [10]: 0.049 µg/mL (≈ 0.102 µM)
MIC (Escherichia coli DC O): 0.098 µg/mL (≈ 0.204 µM)
MIC (Klebsiella oxytoca 1082E): 1.56 µg/mL (≈ 3.26 µM)
MIC (Enterobacter cloacae P99): 100 µg/mL (≈ 209 µM)
antibacterial activity (in words) [11]: excellent antibacterial activity
MIC [12]: > 100 µg/mL
MIC (Escherichia coli TEM; Escherichia coli, 18 h): 0.049 µg/mL (≈ 0.102 µM)
MIC (Salmonella typhimurium): 0.098 µg/mL (≈ 0.204 µM)
MIC (Staphyloccus aureus 285): 3.12 µg/mL (≈ 6.52 µM)

CO/N=C(\C(=O)N[C@@H]1C(=O)N2C(C(=O)[O-])=C(C[n+]3cn(N)c4ccccc43)CS[C@H]12)c1csc(N)n1 [Example 19, (6R,7R)-7-[(Z)-2-(2-aminothiazol-4-yl)-2-methoxyiminoacetamido]-3-[(1-aminobenzimidazol-3-ium)methyl]-ceph-3-em-4-carboxylate]
MIC [1]: 13 ng/mL (≈ 0.0246 µM)
MIC [2]: 50 µg/mL (≈ 94.6 µM)
MIC [3, 15]: 0.195 µg/mL (≈ 0.369 µM)
MIC [4]: 0.781 µg/mL (≈ 1.48 µM)
MIC (Escherichia coli DC 2): 0.391 µg/mL (≈ 0.74 µM)
MIC [5]: 25 µg/mL (≈ 47.3 µM)
MIC [6]: 0.391 µg/mL (≈ 0.74 µM)
MIC (Escherichia coli 1507E; [13]): 0.391 µg/mL (≈ 0.74 µM)
MIC [7]: 7 ng/mL (≈ 0.0132 µM)
MIC [8]: 12.5 µg/mL (≈ 23.6 µM)
MIC [9]: 0.781 µg/mL (≈ 1.48 µM)
MIC (Escherichia coli O 55; Escherichia coli, O55, 18 h): 0.098 µg/mL (≈ 0.185 µM)
MIC [10]: 0.195 µg/mL (≈ 0.369 µM)
MIC (Escherichia coli DC O): 0.391 µg/mL (≈ 0.74 µM)
MIC (Klebsiella oxytoca 1082E): 3.12 µg/mL (≈ 5.91 µM)
MIC (Enterobacter cloacae P99): > 100 µg/mL
antibacterial activity (in words) [11]: excellent antibacterial activity
MIC [12]: > 100 µg/mL
MIC (Escherichia coli TEM; [16]): 0.391 µg/mL (≈ 0.74 µM)
MIC (Salmonella typhimurium): 0.195 µg/mL (≈ 0.369 µM)
MIC (Staphyloccus aureus 285): 0.781 µg/mL (≈ 1.48 µM)

CC(C)(O/N=C(\C(=O)N[C@@H]1C(=O)N2C(C(=O)[O-])=C(C[n+]3cn(N)cn3)CS[C@H]12)c1csc(N)n1)C(=O)O [Example 36, (6R,7R)-7-[(Z)-2-(2-aminothiazol-4-yl)-2-(2-carboxyprop-2-oxyimino)acetamido]-3-[(4-amino-1,2,4-triazol-2-ium)methyl]-ceph-3-em-4-carboxylate]
MIC [1]: 98 ng/mL (≈ 0.178 µM)
MIC [2]: 6.25 µg/mL (≈ 11.3 µM)
MIC [3, 15]: 0.391 µg/mL (≈ 0.709 µM)
MIC [4]: 1.56 µg/mL (≈ 2.83 µM)
MIC (Escherichia coli DC 2): 0.195 µg/mL (≈ 0.354 µM)
MIC [5]: 6.25 µg/mL (≈ 11.3 µM)
MIC [6]: 1.56 µg/mL (≈ 2.83 µM)
MIC (Escherichia coli 1507E; Escherichia coli, 1507E, 18 h): 1.56 µg/mL (≈ 2.83 µM)
MIC [7]: 49 ng/mL (≈ 0.0888 µM)
MIC [8]: 1.56 µg/mL (≈ 2.83 µM)
MIC [9]: 0.098 µg/mL (≈ 0.178 µM)
LD50 at 168 h (Acute toxcity test; [14]): > 6000 mg/kg
LD50 at 168 h (Acute toxcity test; Intravenous administration): > 4000 mg/kg
MIC (Escherichia coli O 55; [17]): 0.195 µg/mL (≈ 0.354 µM)
MIC [10]: 0.781 µg/mL (≈ 1.42 µM)
MIC (Escherichia coli DC O): 0.781 µg/mL (≈ 1.42 µM)
MIC (Klebsiella oxytoca 1082E): 100 µg/mL (≈ 181 µM)
MIC (Enterobacter cloacae P99): 100 µg/mL (≈ 181 µM)
antibacterial activity (in words) [11]: excellent antibacterial activity
MIC [12]: 25 µg/mL (≈ 45.3 µM)
MIC (Escherichia coli TEM; [16]): 3.12 µg/mL (≈ 5.67 µM)
MIC (Salmonella typhimurium): 6.25 µg/mL (≈ 11.3 µM)
MIC (Staphyloccus aureus 285): 3.12 µg/mL (≈ 5.67 µM)

CO/N=C(\C(=O)N[C@@H]1C(=O)N2C(C(=O)[O-])=C(C[n+]3nn(N)c4ccccc43)CS[C@H]12)c1nsc(N)n1 [Example 85, (6R,7R)-7-[(Z)-2-(5-amino-1,2,4-thiadiazol-3-yl)-2-methoxyiminoacetamido]-3-[(1-aminobenzotriazol-3-ium)methyl]-ceph-3-em-4-carboxylate]
MIC [1]: 7 ng/mL (≈ 0.0132 µM)
MIC [2]: 3.12 µg/mL (≈ 5.89 µM)
MIC [3, 15]: 0.007 µg/mL (≈ 0.0132 µM)
MIC [4]: 0.391 µg/mL (≈ 0.737 µM)
MIC (Escherichia coli DC 2): 0.025 µg/mL (≈ 0.0471 µM)
MIC [5]: 3.12 µg/mL (≈ 5.89 µM)
MIC [6]: 0.391 µg/mL (≈ 0.737 µM)
MIC (Escherichia coli 1507E; [13]): 0.049 µg/mL (≈ 0.0924 µM)
MIC [7]: 4 ng/mL (≈ 0.00754 µM)
MIC [8]: 1.56 µg/mL (≈ 2.95 µM)
MIC [9]: 1.56 µg/mL (≈ 2.95 µM)
MIC (Escherichia coli O 55; [17]): 0.007 µg/mL (≈ 0.0132 µM)
MIC [10]: 0.049 µg/mL (≈ 0.0924 µM)
MIC (Escherichia coli DC O): 0.025 µg/mL (≈ 0.0471 µM)
MIC (Klebsiella oxytoca 1082E): 0.781 µg/mL (≈ 1.47 µM)
MIC (Enterobacter cloacae P99): 25 µg/mL (≈ 47.1 µM)
MIC [12]: 100 µg/mL (≈ 188 µM)
MIC (Escherichia coli TEM; [16]): 0.025 µg/mL (≈ 0.0471 µM)
MIC (Salmonella typhimurium): 0.195 µg/mL (≈ 0.368 µM)
MIC (Staphyloccus aureus 285): 1.56 µg/mL (≈ 2.95 µM)

— patent US5336673A, “3-substituted cephem compounds” (priority 1990, dated 1994)
